{"source": "patent US12419889B2", "about": "“Methods of treating chronic spontaneous urticaria using a bruton's tyrosine kinase inhibitor” (NOVARTIS AG, priority 2019, dated 2025)", "key": {"[1]": {"system": "mast cell FcγRIII-mediated inflammation", "assay": "Reverse passive Arthus (RPA) model, skin swelling", "assay_type": "in vivo", "details": "mouse RPA", "protocol": "The duration of the PD effect in skin after single dose was assessed in the reverse passive Arthus (RPA) model of mast cell FcγRIII—mediated inflammation. In this RPA model, a polyclonal IgG antibody is injected locally into the dermis, while the soluble antigen is given systemically by i.v. injection. In this mouse model, mast cell FcγRIII has a dominant role with only minor contributions by the complement system (Hazenbos et al. 1998, journal of immunology, 161(6), pp. 3026; Hazenbos et al., Immunity, 1996, 5(2), pp. 181; Köhl & Gessner 1999, Molecular immunology, 36(13-14), pp. 893; Sylvestre & Ravetch 1996, Immunity, 5(4), pp. 387; Sylvestre & Ravetch 1994, Science, 265(5175), pp. 1095). It has been shown that genetic BTK deficient mice are protected in the passive Arthus skin reaction (Fiedler et al. 2011, blood, 117(4), pp. 1329).\nOral treatment with compound (I) at a single dose of 3, 10, 30 and 100 mg/kg, given 2 hours prior to induction of the RPA response, reduced skin swelling in a dose-related manner. […] (FIG. 2)\nIn this model, the inhibition of skin swelling was maximal when compound (I) was dosed 2 hours prior to eliciting the Arthus reaction. The effect diminished gradually and reached baseline when the Arthus reaction was triggered 45 hours or later after compound (I) dosing."}, "[2]": {"assay": "First-in-human study Part 3, food effect PK", "assay_type": "in vivo", "source_text": "Part 3 was an open-label, randomized, two-way cross-over, single dose study to assess food effects. In Part 3, each subject participated in a 28 day screening period (Day −29 to −2), 2 baseline (Day −1) and 2 treatment periods, each consisting of a single dose administration on Day 1 followed by safety and PK assessment up to Day 5. Treatment period 2 consisted of a follow-up visit and an end of study evaluation on Day 22 and 40, respectively. The two treatment periods were separated by a wash-out period of at least 18 days (+1-1 day).\nSubjects were randomized to one of the 2 treatment sequences (Table 9) in the ratio of 1:1. Definition of treatment sequences for Part 3\nPharmacokinetic samples were obtained in blood and evaluated in all subjects at all dose levels. The samples from placebo subjects were not analyzed. The samples for PK assessments from subjects were collected at time points defined in the study. Compound (I) concentrations were determined in blood by a validated LC-MS/MS method."}, "[3]": {"system": "allergen response (wheal size)", "assay": "Skin prick test (SPT) in healthy atopic subjects", "assay_type": "in vivo, human", "details": "10 mg q.d.", "protocol": "The ability of compound (I) to inhibit a defined allergen response has been evaluated by means of the skin prick test (SPT) in healthy atopic subjects in the MAD study part of the first in human study. SPT was performed prior to dosing (at screening, baseline and pre-dose on Day 1) and at different time points after the first dose (Day 1) and after 11 days of once daily dosing (Day 12)."}}}
{"smiles": "C=CC(=O)N(C)CCOc1c(N)ncnc1-c1cc(F)cc(NC(=O)c2ccc(C3CC3)cc2F)c1C", "note": "[Compound (I), N-(3-(6-Amino-5-(2-(N-methylacrylamido)ethoxy)pyrimidin-4-yl)-5-fluoro-2-methylphenyl)-4-cyclopropyl-2-fluorobenzamide]", "values": [{"measurement": "time between dosing and Arthus trigger at which the effect reached baseline", "setting": "[1]; single dose", "result": "≥ 45", "unit": "h"}, {"measurement": "inhibition of skin swelling", "setting": "[1]; single oral dose 3 mg/kg 2 hours prior to induction", "result": 22.9, "unit": "% inhibition"}, {"measurement": "inhibition of skin swelling", "setting": "[1]; single oral dose 10 mg/kg 2 hours prior to induction", "result": 29.2, "unit": "% inhibition"}, {"measurement": "inhibition of skin swelling", "setting": "[1]; single oral dose 30 mg/kg 2 hours prior to induction", "result": 73.0, "unit": "% inhibition"}, {"measurement": "inhibition of skin swelling", "setting": "[1]; single oral dose 100 mg/kg 2 hours prior to induction", "result": 61.2, "unit": "% inhibition"}, {"measurement": "Tmax", "setting": "[2]; human, whole blood, single oral dose 60 mg, fasted", "result": 1, "unit": "h"}, {"measurement": "AUC0-24, GeoMean", "setting": "[2]; single dose 60 mg, FAST", "result": 182.08, "unit": "ng·h/mL"}, {"measurement": "AUClast, GeoMean", "setting": "[2]; single dose 60 mg, FAST", "result": 177.17, "unit": "ng·h/mL"}, {"measurement": "Tlast, GeoMean", "setting": "[2]; single dose 60 mg, FAST", "result": 9.66, "unit": "h"}, {"measurement": "Tlast, Mean", "setting": "[2]; single dose 60 mg, FAST", "result": 10.50, "unit": "h"}, {"measurement": "Tmax, Mean", "setting": "[2]; single dose 60 mg, FAST", "result": 1.02, "unit": "h"}, {"measurement": "Tlast, GeoMean", "setting": "[2]; single dose 60 mg, FED", "result": 9.25, "unit": "h"}, {"measurement": "Tlast, Mean", "setting": "[2]; single dose 60 mg, FED", "result": 9.50, "unit": "h"}, {"measurement": "higher AUC0-24 fed vs fasted", "setting": "[2]; single oral dose 60 mg", "result": 1.4, "unit": "fold"}, {"measurement": "lower Cmax fed vs fasted", "setting": "[2]; single oral dose 60 mg", "result": 1.25, "unit": "fold"}, {"measurement": "inhibition of wheal size in SPT", "setting": "[3]", "result": "minimal inhibition"}]}
